In patent US20260078130A1, “NAMPT MODULATORS, PREPARATIONS, AND USES THEREOF” (SIRONAX LTD., priority 2022, published 2026):
Where two headings read alike, the source gives them in different places.

Biological target: T1, human enzyme NAMPT (full length) (Homo sapiens, UniProt P43490)
T1 construct: human enzyme NAMPT (full length)
Assay: NMN fluorescence biochemical assay (stimulation of NMN synthesis by NAMPT)
Conditions: for EC50: concentration giving half-maximal activation, read-out: Enzymatic EC50; for Enzymatic Emax: fold change of maximal activation compared to DMSO
Procedure: Certain compounds described herein were assayed for their ability to stimulate the synthesis of nicotinamide mononucleotide (NMN) by human enzyme NAMPT (full length). The enzymatic assay was performed in a 384-well plate using a TMD buffer (50 mM Tris-HCl, 10 mM MgCl2, 2 mM DTT, pH 7.5). Purified NAMPT (100 nM) was pre-incubated with 0.2 μL. DMSO solution of the test compound (with a series of concentrations) in 10 μL TMD buffer for 15 min at 37° C. The reaction was initiated by adding 10 μL solution of NAM (50 μM), PRPP (100 μM), and ATP (4 mM) in TMD buffer. After 1 h of incubation at 37 T, an aliquot (20 μL) of the NMN-containing sample was sequentially mixed with 5 μL of 20% acetophenone (in DMSO) and 5 μL of 2M KOH. The mixture was placed on ice for 10 min. Next, 22.5 μL of 100% formic acid was added to each sample, vortexed, and then incubated at 37° C. for 20 min. Fluorescence (Ex/Em=382/445 nm) was measured using an Envision plate reader. The potency measurements for the test compounds were quantified and represented as EC50 (concentration of a compound that gives half-maximal activation) and Emax (fold change of a compound's maximal activation compared to DMSO).

[1] = NMN synthesis by purified human NAMPT (100 nM)
[2] = NMN fluorescence assay, purified human NAMPT 100 nM

T1 sequence (P43490 whole entry): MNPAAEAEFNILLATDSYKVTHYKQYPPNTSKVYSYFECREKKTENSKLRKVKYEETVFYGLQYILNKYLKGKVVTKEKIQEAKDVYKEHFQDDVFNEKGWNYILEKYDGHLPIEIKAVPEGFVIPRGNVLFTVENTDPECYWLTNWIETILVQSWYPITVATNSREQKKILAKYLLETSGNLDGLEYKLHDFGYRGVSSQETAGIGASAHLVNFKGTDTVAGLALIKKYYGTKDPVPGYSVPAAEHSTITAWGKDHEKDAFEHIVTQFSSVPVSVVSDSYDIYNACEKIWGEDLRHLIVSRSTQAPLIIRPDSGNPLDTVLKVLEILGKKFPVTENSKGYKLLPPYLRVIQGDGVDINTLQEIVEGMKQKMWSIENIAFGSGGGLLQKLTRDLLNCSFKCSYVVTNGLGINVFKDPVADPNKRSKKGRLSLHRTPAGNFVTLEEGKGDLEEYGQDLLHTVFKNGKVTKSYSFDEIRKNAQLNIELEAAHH

| Compound | EC50 [1] [µM] | Enzymatic Emax | EC50 [2] [µM] |
| --- | --- | --- | --- |
| Nn1c(=O)oc2cc(CN3C(=O)c4ccccc4C3Cc3ncccc3Br)ccc21 (centres unmarked) [Compound 256, 3-Amino-6-((1-((3-bromopyridin-2-yl)methyl)-3-oxoisoindolin-2-yl)methyl)benzo[d]oxazol-2(3H)-one] | ≥ 5 | A (A>3) | – |
| O=C1c2ccccc2C(COc2cccc(Cl)n2)N1Cc1ccc2[nH]c(=O)oc2c1 (centres unmarked) [Compound 260, 6-((1-(((6-chloropyridin-2-yl)oxy)methyl)-3-oxoisoindolin-2-yl)methyl)benzo[d]oxazol-2(3H)-one] | 0.5 to 5 | B (3≥B>2) | – |
| Cc1ccnnc1CC1c2ccccc2C(=O)N1Cc1ccc2[nH]c(=O)oc2c1 (centres unmarked) [Compound 261, 6-((1-((4-methylpyridazin-3-yl)methyl)-3-oxoisoindolin-2-yl)methyl)benzo[d]oxazol-2(3H)-one] | 0.5 to 5 | A (A>3) | – |
| O=C1c2ccccc2C(Cc2ccc(Br)cn2)N1Cc1ccc2[nH]c(=O)oc2c1 (centres unmarked) [Compound 262, 6-((1-((5-bromopyridin-2-yl)methyl)-3-oxoisoindolin-2-yl)methyl)benzo[d]oxazol-2(3H)-one] | 0.5 to 5 | A (A>3) | – |
| Cc1ccnc(Cl)c1CC1c2ccccc2C(=O)N1Cc1ccc2[nH]c(=O)oc2c1 (centres unmarked) [Compound 263, 6-((1-((2-chloro-4-methylpyridin-3-yl)methyl)-3-oxoisoindolin-2-yl)methyl)benzo[d]oxazol-2(3H)-one] | < 0.5 | A (A>3) | – |
| NC(=O)c1cccc(CC2c3ccccc3C(=O)N2Cc2ccc3[nH]c(=O)oc3c2)c1 (centres unmarked) [Compound 264, 3-((3-oxo-2-((2-oxo-2,3-dihydrobenzo[d]oxazol-6-yl)methyl)isoindolin-1-yl)methyl) benzamide] | 0.5 to 5 | B (3≥B>2) | – |
| CC1c2cc(Cl)ccc2C(=O)N1Cc1ccc2[nH]c(=O)oc2c1 (centres unmarked) [Compound 265, 6-((5-chloro-3-methyl-1-oxoisoindolin-2-yl)methyl)benzo[d]oxazol-2(3H)-one] | ≥ 5 | A (A>3) | – |
| O=C1c2ccccc2C(Cc2ncccc2Br)N1Cc1cc[nH]c(=O)c1 (centres unmarked) [Compound 266, 3-((3-bromopyridin-2-yl)methyl)-2-((2-oxo-1,2-dihydropyridin-4-yl)methyl)isoindolin-1-one] | ≥ 5 | A (A>3) | – |
| O=C1c2ccccc2C(Cc2ncccc2Br)N1Cc1ccc(O)cn1 (centres unmarked) [Compound 267, 3-((3-bromopyridin-2-yl)methyl)-2-((5-hydroxypyridin-2-yl)methyl)isoindolin-1-one] | 0.5 to 5 | A (A>3) | – |
| O=C1c2ccccc2C(Cc2ncccc2Br)N1Cc1ccc2[nH]cnc2c1 (centres unmarked) [Compound 268, 2-((1H-benzo[d]imidazol-5-yl)methyl)-3-((3-bromopyridin-2-yl)methyl)isoindolin-1-one] | 0.5 to 5 | A (A>3) | – |
| Nc1nnc2cc(CN3C(=O)c4ccccc4C3Cc3ncccc3Br)ccn12 (centres unmarked) [Compound 269, 2-((3-amino-[1,2,4]triazolo[4,3-a]pyridin-7-yl)methyl)-3-((3-bromopyridin-2-yl)methyl) isoindolin-1-one] | ≥ 5 | B (3≥B>2) | – |
| NC(=O)c1cnc(CN2C(=O)c3ccccc3C2Cc2ncccc2Br)s1 (centres unmarked) [Compound 280, 2-((1-((3-bromopyridin-2-yl)methyl)-3-oxoisoindolin-2-yl)methyl)thiazole-5-carboxamide] | ≥ 5 | B (3≥B>2) | – |
| O=C1c2ccccc2C(Cc2ncccc2Br)N1Cc1ccn2c(=O)[nH]nc2c1 (centres unmarked) [Compound 281, 7-((1-((3-bromopyridin-2-yl)methyl)-3-oxoisoindolin-2-yl)methyl)-[1,2,4]triazolo[4,3-a]pyridin-3(2H)-one] | ≥ 5 | C (2≥C) | – |
| N#Cc1nccc(Cl)c1CC1c2cc(C3COC3)ccc2C(=O)N1Cc1ccc2[nH]c(=O)oc2c1 (centres unmarked) [Compound 285, 4-chloro-3-((6-(oxetan-3-yl)-3-oxo-2-((2-oxo-2,3-dihydrobenzo[d]oxazol-6-yl)methyl)isoindolin-1-yl)methyl)picolinonitrile] | < 0.5 | B (3≥B>2) | – |
| N#Cc1nccc(Cl)c1CC1c2cccc(F)c2C(=O)N1Cc1ccc2[nH]c(=O)oc2c1 (centres unmarked) [Compound 286, 4-chloro-3-((4-fluoro-3-oxo-2-((2-oxo-2,3-dihydrobenzo[d]oxazol-6-yl)methyl)isoindolin-1-yl)methyl)picolinonitrile] | < 0.5 | B (3≥B>2) | – |
| O=C1c2ccccc2C(Cc2ncccc2Br)N1Cc1ccc2[nH]c(=S)oc2c1 (centres unmarked) [Compound 287, 3-((3-bromopyridin-2-yl)methyl)-2-((2-thioxo-2,3-dihydrobenzo[d]oxazol-6-yl)methyl) isoindolin-1-one] | 0.5 to 5 | B (3≥B>2) | – |
| O=C1c2ccccc2C(Cc2ncccc2Br)N1Cc1ccc2c(c1)nnn2O (centres unmarked) [Compound 288, 3-((3-bromopyridin-2-yl)methyl)-2-((1-hydroxy-1H-benzo[d][1,2,3]triazol-5-yl)methyl) isoindolin-1-one] | ≥ 5 | C (2≥C) | – |
| CC1c2ccccc2C(=O)N1Cc1cc(F)c2[nH]nnc2c1 (centres unmarked) [Compound 290, 2-((7-fluoro-1H-benzo[d][1,2,3]triazol-5-yl)methyl)-3-methylisoindolin-1-one] | ≥ 5 | C (2≥C) | – |
| CN(C)c1ccc2c(c1)C(=O)N(Cc1ccc(O)cc1)C2 [Compound 305, 6-(dimethylamino)-2-(4-hydroxybenzyl) isoindolin-1-one] | ≥ 5 | C (2≥C) | – |
| O=C1c2ccccc2C(C(F)(F)c2ccccc2)N1Cc1ccc2[nH]c(=O)oc2c1 (centres unmarked) [Compound 306, 6-((1-(difluoro(phenyl)methyl)-3-oxoisoindolin-2-yl)methyl)benzo[d]oxazol-2(3H)-one] | ≥ 5 | C (2≥C) | – |
| Cn1ncc(Cl)c1C[C@@H]1c2ccccc2C(=O)N1C/C=C/c1c[nH]nn1 [Compound 313, (R,E)-2-(3-(1H-1,2,3-triazol-4-yl)allyl)-3-((4-chloro-1-methyl-1H-pyrazol-5-yl)methyl)isoindolin-1-one] | ≥ 5 | C (2≥C) | – |
| O=C1c2ccccc2C(Cc2ncccc2Br)N1CC1CC2(CC(O)C2)C1 (centres unmarked) [Compound 321, 3-((3-bromopyridin-2-yl)methyl)-2-((6-hydroxyspiro[3.3]heptan-2-yl)methyl) isoindolin-1-one] | – | B (3≥B>2) | 0.5 to 5 |
| O=C1c2ccccc2C(Cc2ncccc2Br)N1Cc1ccn2c(CO)nnc2c1 (centres unmarked) [Compound 323, 3-((3-bromopyridin-2-yl)methyl)-2-((3-(hydroxymethyl)-[1,2,4]triazolo[4,3-a]pyridin-7-yl)methyl)isoindolin-1-one] | – | B (3≥B>2) | ≥ 5 |
| Cc1cc2[nH]c(=O)oc2cc1CN1C(=O)c2ccccc2C1Cc1ncccc1Br (centres unmarked) [Compound 333, 6-((1-((3-bromopyridin-2-yl)methyl)-3-oxoisoindolin-2-yl)methyl)-5-methylbenzo[d]oxazol-2(3H)-one] | – | B (3≥B>2) | 0.5 to 5 |
| O=C1c2ccccc2C(Cc2ncccc2Br)N1Cc1ccc2[nH]c(=O)ncc2c1 (centres unmarked) [Compound 348, 6-((1-((3-bromopyridin-2-yl)methyl)-3-oxoisoindolin-2-yl)methyl)quinazolin-2(1H)-one] | – | C (2≥C) | 0.5 to 5 |
